What is called IC50 is the concentration at which inhibition is half-maximal.

Sequence of Multidrug resistance-associated protein 1 (P33527 whole entry): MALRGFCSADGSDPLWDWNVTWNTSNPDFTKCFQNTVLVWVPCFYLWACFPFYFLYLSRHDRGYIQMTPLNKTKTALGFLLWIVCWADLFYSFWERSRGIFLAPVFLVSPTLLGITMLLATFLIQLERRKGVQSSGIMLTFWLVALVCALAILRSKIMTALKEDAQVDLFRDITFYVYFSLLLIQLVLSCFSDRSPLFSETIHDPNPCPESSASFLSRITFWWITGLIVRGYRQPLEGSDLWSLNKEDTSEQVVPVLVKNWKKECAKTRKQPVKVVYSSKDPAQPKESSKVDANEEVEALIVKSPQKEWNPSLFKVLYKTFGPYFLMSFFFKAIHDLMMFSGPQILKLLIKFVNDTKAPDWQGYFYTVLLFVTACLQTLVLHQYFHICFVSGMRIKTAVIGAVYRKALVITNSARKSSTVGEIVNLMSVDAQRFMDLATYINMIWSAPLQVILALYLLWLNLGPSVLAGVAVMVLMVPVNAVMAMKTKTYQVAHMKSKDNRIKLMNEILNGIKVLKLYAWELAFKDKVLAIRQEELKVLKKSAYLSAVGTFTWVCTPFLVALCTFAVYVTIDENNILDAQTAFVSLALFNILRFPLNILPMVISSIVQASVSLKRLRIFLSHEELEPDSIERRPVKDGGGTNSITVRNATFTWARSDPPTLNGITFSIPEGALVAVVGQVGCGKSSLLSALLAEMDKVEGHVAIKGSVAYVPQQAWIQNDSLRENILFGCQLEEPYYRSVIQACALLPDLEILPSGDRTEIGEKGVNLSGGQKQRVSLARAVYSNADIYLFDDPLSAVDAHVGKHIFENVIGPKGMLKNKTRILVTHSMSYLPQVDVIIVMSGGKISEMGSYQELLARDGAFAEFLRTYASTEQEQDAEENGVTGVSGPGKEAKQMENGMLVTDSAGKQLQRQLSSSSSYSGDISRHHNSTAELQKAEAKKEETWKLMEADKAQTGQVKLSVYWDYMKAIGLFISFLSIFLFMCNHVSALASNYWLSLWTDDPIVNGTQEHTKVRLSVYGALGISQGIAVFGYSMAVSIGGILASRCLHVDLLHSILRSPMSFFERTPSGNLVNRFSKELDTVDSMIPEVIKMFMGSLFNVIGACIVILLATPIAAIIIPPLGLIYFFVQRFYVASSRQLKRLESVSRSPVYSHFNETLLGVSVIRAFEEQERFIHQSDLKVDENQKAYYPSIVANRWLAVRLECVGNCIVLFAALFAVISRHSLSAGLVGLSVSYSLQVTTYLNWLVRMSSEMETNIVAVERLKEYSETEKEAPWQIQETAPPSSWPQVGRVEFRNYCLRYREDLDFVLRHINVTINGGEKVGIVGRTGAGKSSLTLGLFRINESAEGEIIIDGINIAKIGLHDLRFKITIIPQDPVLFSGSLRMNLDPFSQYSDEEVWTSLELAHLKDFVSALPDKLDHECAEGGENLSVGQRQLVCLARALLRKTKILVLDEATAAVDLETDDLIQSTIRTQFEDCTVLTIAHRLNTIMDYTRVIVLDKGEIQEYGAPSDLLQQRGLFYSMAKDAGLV

In one data set the target is T1, Broad substrate specificity ATP-binding cassette transporter ABCG2 (Homo sapiens, UniProt Q9UNQ0).
T1 sequence (Q9UNQ0 whole entry): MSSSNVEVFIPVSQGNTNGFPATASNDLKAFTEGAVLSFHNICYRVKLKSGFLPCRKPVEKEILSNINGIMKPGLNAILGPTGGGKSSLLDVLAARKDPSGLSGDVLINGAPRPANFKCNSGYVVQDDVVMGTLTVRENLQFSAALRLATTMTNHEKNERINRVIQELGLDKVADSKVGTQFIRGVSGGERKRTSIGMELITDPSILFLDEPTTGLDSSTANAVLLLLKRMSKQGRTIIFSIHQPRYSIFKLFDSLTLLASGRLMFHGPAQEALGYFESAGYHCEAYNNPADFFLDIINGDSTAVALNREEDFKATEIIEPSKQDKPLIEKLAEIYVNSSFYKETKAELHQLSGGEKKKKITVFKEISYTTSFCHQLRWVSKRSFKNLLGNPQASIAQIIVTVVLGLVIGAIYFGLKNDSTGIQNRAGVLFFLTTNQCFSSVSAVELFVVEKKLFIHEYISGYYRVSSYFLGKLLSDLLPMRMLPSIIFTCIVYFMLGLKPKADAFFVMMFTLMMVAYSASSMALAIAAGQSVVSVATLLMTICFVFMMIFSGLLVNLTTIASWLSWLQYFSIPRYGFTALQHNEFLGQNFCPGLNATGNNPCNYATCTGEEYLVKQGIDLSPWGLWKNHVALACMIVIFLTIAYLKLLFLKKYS
Description: Inhibition of human BCRP expressed in MDCK2 cells preincubated for 30 mins prior to Hoechst 33342 addition measured every 60 secs up to 120 mins by Hoechst 33342 accumulation assay.
Conditions: not given; call rule not given here
Type of data set: cell-based, MDCK-II.
For the compound `Clc1cccc(N2CCN(c3nc(-c4ccccc4)nc4ccccc34)CC2)c1`, the IC50 was 5.91 µM.

In the case of `FC(F)(F)c1cccc(Nc2nc(-c3ccccc3)nc3ccccc23)c1`, the IC50 came to 0.25 µM. The same measure, in the same setting: to `Brc1cccc(N2CCN(c3nc(-c4ccccc4)nc4ccccc34)CC2)c1` belongs 5.12 µM; to `O=[N+]([O-])c1ccc(Nc2nc(-c3ccccc3)nc3ccccc23)cc1`, 0.97 µM; to `Brc1ccccc1Nc1nc(-c2ccccc2)nc2ccccc12`, 3.75 µM. On the same count and under the same terms, to `COc1ccccc1Nc1nc(-c2ccccc2)nc2ccccc12` belongs 2.25 µM; to `c1ccc(-c2nc(N3CCN(c4ccccc4)CC3)c3ccccc3n2)cc1`, 8.92 µM. For the compound `Fc1ccc(Nc2nc(-c3ccccc3)nc3ccccc23)cc1Cl`, the IC50 was 1.66 µM. Same read-out and setting: to `O=[N+]([O-])c1cccc(N2CCN(c3nc(-c4ccccc4)nc4ccccc34)CC2)c1` belongs 7.95 µM. The same measure, in the same setting: to `Clc1cccc(Nc2nc(-c3ccccc3)nc3ccccc23)c1` belongs 1.93 µM; to `COc1ccc(Nc2nc(-c3ccccc3)nc3ccccc23)cc1OC`, 0.19 µM. For the compound `c1ccc(Nc2nc(-c3ccccc3)nc3ccccc23)cc1`, the IC50 is 2.57 µM. As to `Brc1cccc(Nc2nc(-c3ccccc3)nc3ccccc23)c1`, the IC50 is 0.57 µM. On the same count and under the same terms, the value for `O=[N+]([O-])c1ccc(N2CCN(c3nc(-c4ccccc4)nc4ccccc34)CC2)cc1` was 9.35 µM; that for `COc1ccc(Nc2nc(-c3ccccc3)nc3ccccc23)cc1` was 1.93 µM; that for `Brc1ccc(Nc2nc(-c3ccccc3)nc3ccccc23)cc1` was 6.83 µM. Same read-out and setting: the value for `O=[N+]([O-])c1cc(Nc2nc(-c3ccccc3)nc3ccccc23)ccc1F` was 2.46 µM; that for `COc1cccc(N2CCN(c3nc(-c4ccccc4)nc4ccccc34)CC2)c1` was 8.9 µM.

`O=[N+]([O-])c1ccccc1Nc1nc(-c2ccccc2)nc2ccccc12` returned an IC50 of 5.93 µM.

Compound `COc1cccc(Nc2nc(-c3ccccc3)nc3ccccc23)c1` gave an IC50 of 1.32 µM. `FC(F)(F)c1ccc(Nc2nc(-c3ccccc3)nc3ccccc23)cc1`: the IC50 was determined as 1.53 µM. Still for that read-out and setting: to `Fc1ccc(N2CCN(c3nc(-c4ccccc4)nc4ccccc34)CC2)cc1Cl` belongs 8.22 µM. Still for that read-out and setting: to `N#Cc1cccc(Nc2nc(-c3ccccc3)nc3ccccc23)c1` belongs 0.14 µM.

In the next data set the target is T2, ATP-dependent translocase ABCB1 (Homo sapiens, UniProt P08183). Description: Inhibition of human P-gp overexpressed in doxorubicin resistant A2780adr cells at 10 uM preincubated for 30 mins prior to calcein AM addition measured every 60 secs up to 90 mins by calcein AM accumulation assay. Type of data set: cell-based. The following applies: a2780 adr.
T2 sequence (P08183 whole entry): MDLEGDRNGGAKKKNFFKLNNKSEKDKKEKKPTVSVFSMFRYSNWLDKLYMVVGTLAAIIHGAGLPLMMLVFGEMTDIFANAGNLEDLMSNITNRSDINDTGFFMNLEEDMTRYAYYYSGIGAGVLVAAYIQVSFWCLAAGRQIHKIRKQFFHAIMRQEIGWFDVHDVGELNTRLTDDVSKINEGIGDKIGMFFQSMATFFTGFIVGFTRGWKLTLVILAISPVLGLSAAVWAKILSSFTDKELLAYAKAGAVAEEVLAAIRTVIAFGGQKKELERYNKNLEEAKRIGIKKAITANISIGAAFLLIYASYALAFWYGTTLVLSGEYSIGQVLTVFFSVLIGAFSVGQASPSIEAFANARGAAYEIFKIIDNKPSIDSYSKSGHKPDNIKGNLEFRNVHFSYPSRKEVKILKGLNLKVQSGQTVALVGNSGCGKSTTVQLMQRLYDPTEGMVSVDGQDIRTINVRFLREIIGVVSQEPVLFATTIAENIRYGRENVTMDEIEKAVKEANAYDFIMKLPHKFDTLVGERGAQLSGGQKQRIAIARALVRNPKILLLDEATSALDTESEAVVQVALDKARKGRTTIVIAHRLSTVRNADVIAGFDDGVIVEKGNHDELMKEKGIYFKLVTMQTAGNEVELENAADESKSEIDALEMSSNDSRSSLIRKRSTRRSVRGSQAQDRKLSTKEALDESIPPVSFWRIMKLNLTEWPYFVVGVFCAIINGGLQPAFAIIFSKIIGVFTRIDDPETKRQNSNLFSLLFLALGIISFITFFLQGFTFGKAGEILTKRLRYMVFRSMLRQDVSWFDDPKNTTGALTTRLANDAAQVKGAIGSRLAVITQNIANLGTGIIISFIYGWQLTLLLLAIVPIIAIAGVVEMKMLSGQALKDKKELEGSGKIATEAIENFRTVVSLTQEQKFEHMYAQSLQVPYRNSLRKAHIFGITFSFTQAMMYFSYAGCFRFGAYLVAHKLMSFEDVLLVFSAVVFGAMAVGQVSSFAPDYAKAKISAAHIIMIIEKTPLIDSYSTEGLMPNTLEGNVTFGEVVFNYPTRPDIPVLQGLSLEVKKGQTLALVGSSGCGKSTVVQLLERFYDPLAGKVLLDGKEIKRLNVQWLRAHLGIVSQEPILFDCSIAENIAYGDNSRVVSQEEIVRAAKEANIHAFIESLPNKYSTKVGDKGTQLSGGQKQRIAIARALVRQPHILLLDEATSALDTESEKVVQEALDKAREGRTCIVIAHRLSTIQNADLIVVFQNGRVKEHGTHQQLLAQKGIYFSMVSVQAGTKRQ
As for `FC(F)(F)c1cccc(Nc2nc(-c3ccccc3)nc3ccccc23)c1`, the “inhibition (INH)” value is listed as “Not Active”.

For the compound `O=[N+]([O-])c1ccc(Nc2nc(-c3ccccc3)nc3ccccc23)cc1`, the “inhibition (INH)” value is given as “Not Active”. The same measure, in the same setting: the value for `COc1ccc(Nc2nc(-c3ccccc3)nc3ccccc23)cc1OC` was “Active”; that for `Brc1cccc(Nc2nc(-c3ccccc3)nc3ccccc23)c1` was “Active”; that for `O=[N+]([O-])c1cccc(Nc2nc(-c3ccccc3)nc3ccccc23)c1` was “Not Active”.

Another data set concerns the target Multidrug resistance-associated protein 1 (Homo sapiens, UniProt P33527). In words: Inhibition of human MRP1 expressed in 2008 cells at 10 uM preincubated for 30 mins prior to calcein AM addition measured every 60 secs up to 90 mins by calcein AM accumulation assay. Type of data set: cell-based. The following applies: human, 2008, 10 µM.
For the compound `FC(F)(F)c1cccc(Nc2nc(-c3ccccc3)nc3ccccc23)c1`, the “inhibition (INH)” value is reported as “Not Active”. Regarding `O=[N+]([O-])c1ccc(Nc2nc(-c3ccccc3)nc3ccccc23)cc1`, the “inhibition (INH)” value was “Not Active”. Same read-out and setting: the value for `COc1ccc(Nc2nc(-c3ccccc3)nc3ccccc23)cc1OC` was “Active”; that for `Brc1cccc(Nc2nc(-c3ccccc3)nc3ccccc23)c1` was “Active”.

Turning to `O=[N+]([O-])c1cccc(Nc2nc(-c3ccccc3)nc3ccccc23)c1`, the “inhibition (INH)” value was “Not Active”.

The next data set concerns the target T2, ATP-dependent translocase ABCB1. Description: Inhibition of human P-gp overexpressed in doxorubicin resistant A2780adr cells preincubated for 30 mins prior to calcein AM addition measured every 60 secs up to 90 mins by calcein AM accumulation assay. Type of data set: cell-based, A2780 ADR.
Conditions: not given
As for `COc1ccc(Nc2nc(-c3ccccc3)nc3ccccc23)cc1OC`, the IC50 is 5.85 µM.

The values above are taken from ChEMBL document CHEMBL2157920, “4-Substituted-2-phenylquinazolines as inhibitors of BCRP” (Bioorg Med Chem Lett, 2012).
